Test results as given in patent US9278915B2, “Agonists of GPR40” (CONNEXIOS LIFE SCIENCES PVT LTD, priority 2010, dated 2016).

Biological target: T1, hGPR40 (Homo sapiens, UniProt O14842)
T1 construct: expressed in transfected cells
Experiment: Calcium flux assay to detect GPR40 activation
Type: cell-based
Settings: CHO-K cells stably expressing hGPR40; Fluo-4 NW; read for 4 min at 5 s intervals
Experimental: Biological Activity Calium Flux Assay to Detect GPR40 Activation: CHO-K cells stably expressing hGPR40 were selected in a media containing Neomycin/G418. The cells were plated at a concentration of 20,000 cells per well in black 96-well clear bottom tissue culture treated plates. The cells were cultured for 24 h at 37° C. in a humidified 5% CO2 air environment to allow for protein expression. The next day, after removal of media from wells, Fluo-4 NW (Invitrogen) is added at 100 ul/well and the cells were incubated for 30 min at 37° C. and for a further 30 min at RT. All test compounds were diluted to appropriate concentrations in HEPES buffer. Compounds were added to the cells and the wells were read in the BioTEK synergy reader and readings were taken for 4 min with an interval of 5 s.

T1 sequence (O14842 whole entry): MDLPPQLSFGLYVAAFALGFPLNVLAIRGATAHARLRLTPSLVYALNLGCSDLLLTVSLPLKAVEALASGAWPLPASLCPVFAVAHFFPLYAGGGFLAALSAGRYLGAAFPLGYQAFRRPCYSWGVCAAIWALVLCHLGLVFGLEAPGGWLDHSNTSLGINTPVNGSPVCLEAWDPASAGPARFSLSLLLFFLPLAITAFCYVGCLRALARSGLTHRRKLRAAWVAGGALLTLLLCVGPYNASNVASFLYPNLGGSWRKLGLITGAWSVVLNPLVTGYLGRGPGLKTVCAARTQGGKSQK

EC50, 10 to 100 nM:
N#CC(CC(=O)O)c1ccc(OCc2ccc(OC/C(=N\O)c3ccccc3)cc2)cc1 (centres unmarked) [Compound 78, 3-Cyano-3-{4-[(4-{[(2E,2Z)-2-(hydroxyimino)-2-phenylethyl]oxy}benzyl)oxy]phenyl}propanoic acid]
CO/N=C(\COc1ccc(COc2ccc(C(C#N)CC(=O)O)cc2)cc1)c1cccc(F)c1 (centres unmarked) [Compound 35, 3-Cyano-3-{4-[(4-{[(2Z)-2-(3-fluorophenyl)-2-(methoxyimino)ethyl]oxy}benzyl)oxy]phenyl}propanoic acid]
CO/N=C(\COc1ccc(CNc2ccc(CCC(=O)O)cc2)cc1)c1ccccc1C [Compound 6, 3-{4-[(4-{[(2Z)-2-(Methoxyimino)-2-(2-methylphenyl)ethyl]oxy}benzyl)amino]phenyl}propanoic acid]

EC50, > 100 nM:
CO/N=C(\COc1ccc(COc2ccc(CCC(=O)O)c(OCC3CC3)c2)cc1)c1ccccc1 [Compound 58, 3-{2-(Cyclopropylmethoxy)-4-[(4-{[(2Z)-2-(methoxyimino)-2-phenylethyl]oxy}benzyl)oxy]phenyl}propanoic acid]
CO/N=C(\COc1ccc(COc2ccc(CCC(=O)O)c(OC)c2)cc1)c1ccc(C#N)cc1 [Compound 43, 3-{4-[(4-{[(2Z)-2-(4-Cyanophenyl)-2-(methoxyimino)ethyl]oxy}benzyl)oxy]-2-methoxyphenyl}propanoic acid]
CO/N=C(\COc1ccc(COc2ccc(CCC(=O)O)cc2OC)cc1)c1ccccc1 [Compound 94, 3-{3-Methoxy-4-[(4-{[(2Z)-2-(methoxyimino)-2-phenylethyl]oxy}benzyl)oxy]phenyl}propanoic acid]
CCCC(CC(=O)O)c1ccc(OCc2ccc(OC/C(=N\OC)c3ccccc3)cc2)cc1 (centres unmarked) [Compound 91, 3-{4-[(4-{[(2Z)-2-(Methoxyimino)-2-phenylethyl]oxy}benzyl)oxy]phenyl}hexanoic acid]
CO/N=C(\COc1ccc(COc2ccc(CCC(=O)O)c(-c3cc(C)on3)c2)cc1)c1ccccc1 [Compound 65, 3-{4-[(4-{[(2Z)-2-(Methoxyimino)-2-phenylethyl]oxy}benzyl)oxy]-2-(5-methyl-1,2-oxazol-3-yl)phenyl}propanoic acid]
CO/N=C(/c1ccccc1)c1cccc(COc2ccc(C(C#N)CC(=O)O)cc2)c1 (centres unmarked) [Compound 12, 3-Cyano-3-[4-({3-[(E,Z)-(methoxyimino)(phenyl)methyl]benzyl}oxy)phenyl]propanoic acid]
CCOC(=O)CCc1ccc(OCc2ccc(OC/C(=N\OC)c3ccccc3)cc2)cc1OCC(=O)O [Compound 90, {2-(3-Ethoxy-3-oxopropyl)-5-[(4-{[(2E,2Z)-2-(methoxyimino)-2-phenylethyl]oxy}benzyl)oxy]phenoxy}acetic acid]

EC50, < 10 nM:
CO/N=C(\COc1ccc(COc2ccc(C(C#N)CC(=O)O)cc2)cc1)c1ccccc1 (single isomer, unassigned; (-)) [Compound 82, (−)-Sodium 3-cyano-3-{4-[(4-{[(2E,2Z)-2-(methoxyimino)-2-phenylethyl]oxy}benzyl)oxy]phenyl}propanoate]
CO/N=C(\COc1ccc(COc2ccc(C3CC3C(=O)O)cc2)cc1)c1ccc(C#N)cc1 (centres unmarked) [Compound 51, Sodium 2-{4-[(4-{[(2Z)-2-(4-cyanophenyl)-2-(methoxyimino)ethyl]oxy}benzyl)oxy]phenyl}cyclopropanecarboxylate]
CO/N=C(\COc1ccc(COc2ccc(C(C#N)CC(=O)O)cc2)cc1)c1ccccc1 (centres unmarked) [Compound 31, Potassium 3-cyano-3-{4-[(4-{[(2Z)-2-(methoxyimino)-2-phenylethyl]oxy}benzyl)oxy]phenyl}propanoate]
CO/N=C(\COc1ccc(COc2ccc(C(C#N)CC(=O)O)cc2)cc1)c1ccccc1 (single isomer, unassigned; (-)) [Compound 75, (−)-3-Cyano-3-{4-[(4-{[(2Z)-2-(methoxyimino)-2-phenylethyl]oxy}benzyl)oxy]phenyl}propanoic acid]
